Measurements reported in patent US10875861B1, “Therapeutic compounds” (Rutgers, The State University of New Jersey, priority 2017, dated 2020).
Structures can show the parent of a compound that is named as a salt.

Columns and labels:
[1] = system: BMI-1 protein; assay: Inhibition of BMI-1 protein levels in U87 cells (Western blotting); type: cell-based; settings: read-out: IC50, inhibition of BMI-1 protein levels, U87 glioblastoma cell lysate, 72 hours
Experimental: U87 cells were treated with DMSO or different concentrations of compound B1 for 72 hours. Cells were lysed in Cell Lysis Buffer (Cell Signaling, #9803) supplemented with Protease Inhibitor Cocktail (Sigma, #P8340), sonicated briefly while on ice and spun down for 30 minutes at 4° C., after which the supernatant was collected. For each sample, 2 uL of lysate was mixed well into 198 uL de-ionized water. Next, 10 uL of this diluted sample was added to a well in a 96 well plate in quadruplets and mixed with Protein Assay Dye Reagent Concentrate (Bio-Rad, #500-0006) (which was diluted 1:5 with water). BSA standards of 25 ng, 50 ng, 100 ng, 200 ng and 250 ng were also used to the plate and mixed with the reagent. The plate was read in a plate reader at 600 nm and samples were calibrated to the standards to determine the concentration of protein. Using the NuPAGE system (Invitrogen), 25 ug of protein was mixed with NuPAGE LDS 4× Sample Buffer (#NP0007), NuPAGE 10× Reducing Agent (#NP0004) and water, mixed well and heated at 96° C. for 15 minutes to denature the protein. […] Protein signals were detected using ECL Western Blotting Substrate (Pierce, #32106) and filmed.
U87 cells were treated with DMSO or different concentrations of the inhibitors for 72 hours. […] The plate was read in a plate reader at 600 nm and samples were calibrated to the standards to determine the concentration of protein. […]

[2] = system: U87 glioblastoma cells; assay: Comparison of Example 3 and PTC-209 in U87 glioblastoma cells (cell viability); type: cell-based
Text: (§1) BMI-1 inhibitors were developed by the Molecular Design and Synthesis laboratory, Rutgers Translational Sciences at Rutgers University, NJ, USA. […] (Generic name is PTC-209) was characterized among a screen for post-transcriptional inhibitors of BMI-1. Zebrafish embryo toxicology assays were used to select RU-A compounds with no embryonic toxicity in vivo (a surrogate assay for toxic effects on normal stem cells). […] Cells were counted using Beckman Coulter Vi-CELL Cell Viability Analyzer, and cell viability was confirmed by CellTiter-Glo Luminescent Cell Viability Assay (Promega, Madison, Wis., USA) according to standard protocols and analyzed with a Victor 2 plate reader (Wallac, Turku, Finland).

[3] = system: BMI-1 and ubiquitinated histone H2A in primary glioblastoma cells; assay: Modulation / dynamics of BMI-1 and downstream targets in GBM cells (Western blotting); type: cell-based, human
Experimental: Different GBM cells were treated with DMSO or different concentrations of the B compounds for 72 hours. Cells were lysed in Cell Lysis Buffer (Cell Signaling, #9803) supplemented with Protease Inhibitor Cocktail (Sigma, #P8340), spun down for 30 minutes at 4° C., after which the supernatant was collected at every time point indicated. Western blotting analysis was performed on all samples as described above. BMI-1 loss started at 6-12 h, coinciding with an upper shift and hyper-phosphorylation of BMI-1 at 12-24 h and complete depletion at 72 h.
To study the compound dynamic activity against GBM spheres, GBMs were tested with exemplary compounds. Different GBM cells were treated with DMSO or different concentrations of the inhibitors for 72 hours. Cells were lysed in Cell Lysis Buffer (Cell Signaling, #9803) supplemented with Protease Inhibitor Cocktail (Sigma, #P8340), spun down for 30 minutes at 4° C., after which the supernatant was collected at every time point indicated. Western blotting analysis was performed on all samples as described above. […] BMI-1 loss started at 6-12 h, coinciding with an upper shift and hyper-phosphorylation of BMI-1 at 12-24 h and complete depletion at 72 h. […] This is expected since BMI-1 is known to suppress p21. BMI-1 inhibition could be reversed using phosphatase treatment, moreover, when proteasomal inhibitor is added to treated cells after 24 h, BMI-1 is locked in the phosphorylated state, therefore showing that the phosphorylation event precedes BMI-1 degradation. The phosphorylation was independent of p38 kinase activation, as when we added […], the p38 inhibitor to the cultured cells upon treatment with the BMI-1 inhibitor, the combined treatment could not reverse the effects of RU-A15 on BMI-1 inhibition.

[4] = system: BMI-1 5'UTR; assay: Luciferase plasmid containing the BMI-1 5'UTR with or without binding pocket; type: cell-based
Experimental: Since translation initiation is dependent on RNA folding, the 3D folding of the BMI-1 5′UTR was examined. To identify sequences that fold into a target minimum and maximum free energy (MFE) secondary structure, inverse RNA folding of the BMI-1 5′UTR was performed using the mFold server. A highly probable, probability annotated group of secondary structures were identified, starting with the MFE, centroid energy structures and including fourteen other probabilities. […] In a luciferase plasmid containing the BMI-1 5′UTR, the sequences of the pocket region that contains the potential binding site was removed by cutting with compatible restriction enzymes and re-ligating the plasmid. The luciferase activity was examined with the luc plasmids or without the binding pocket upon treatment with the inhibitors. […] Thus, RU-A15/A16 engages with the BMI-1 UTR regulatory mechanisms.

[5] = system: BMI-1 and αENaC mRNA; assay: mRNA expression of BMI-1 and αENaC on concomitant treatment with cyclohexamide; type: cell-based; settings: RU-A15 100 nM, RU-A16 200 nM, concomitant with CHX
Experimental: Next, to test if Examples 3 and 4 are selective for BMI-1 RNA, cells were concomitantly treated with RU-A15/16 (100 nM, 200 nM, respectively) and cyclohexamide (CHX), a general translational inhibitor, and analyzed mRNA expression of BMI-1 and the CHX-specific target epithelial sodium channel (αENaC).

[6] = system: normal astrocytes; assay: Effects on normal astrocytes; type: cell-based
Text: as §1

[7] = system: Zebrafish embryo; assay: Zebrafish embryo toxicology assay; type: in vivo
Text: as §1

[8] = system: glioblastoma cancer stem cells; assay: Sphere selectivity ratio EC50(U87)/EC50(spheres); type: cell-based, human; settings: ratio greater than controls (DMSO and Temozolomide)
Experimental: The selectivity and potency in U87 cells were assessed vs primary GBM. Dose-response curves were generated in both spheres and monocultures and used to determine a sphere selectivity ratio (targeting Glioblastoma Initiating Cells), defined as EC50(U87)/EC50(spheres), for each compound.

[9] = primary glioblastoma cells, Western blotting

COc1ccc(Nc2nc(-c3c(C)nc4ccccn34)cs2)cc1 [Example 3, N-(4-methoxyphenyl)-4-(2-methylimidaz[1,2-a]pyridin-3-yl)thiazol-2-aminehydrobromide]
IC50 [1]: 10 nM
potency relative to PTC-209 [2]: one thousand-fold more potent than PTC-209
IC50 ([2]; Homo sapiens, U-87 MG, 72 hours): 10 nM
CDK inhibitor p21 ([3]; GBM#46 and #50): induced upregulation of the CDK inhibitor p21
lowest concentration giving dose-dependent loss of BMI-1 protein expression ([3]; GBM#50, 72 h): 25 nM
BMI-1 protein levels [3, 9]: inhibit BMI-1
WT p53 levels [3, 9]: increase WT p53 levels
ubiquitin H2A [3, 9]: inhibit ubiquitin H2A
normalized luc, BMI-1 5'UTR with intact binding pocket ([4]; intact minor groove potential binding pocket): significantly reduced normalized luc
normalized luc, binding pocket sequences removed ([4]; pocket sequences removed): not when the pocket sequences were removed
BMI-1 mRNA expression [5]: did not inhibit
αENaC mRNA expression [5]: did not inhibit
effects on normal astrocytes [6]: no significant effects
effects in embryo assays [7]: no significant effects
selectivity for glioblastoma cancer stem cells (sphere selectivity ratio) [8]: high selectivity for glioblastoma cancer stem cells
